In assay [1] the target is T1, cdc7/Dbf4 (Homo sapiens, UniProt O00311).
T1 construct: Full-length cdc7 co-expressed with full-length Dbf4; purchased Carna Bioscience, Inc. (Kobe, Japan)
As to the kind of experiment: Determination of cdc7 kinase inhibitory activity (HTRF Transcreener ADP assay). The class given is biochemical. Conditions: test compound 1 μM; 1.0 μM ATP, 10 μg/ml MCM2, 0.1 μg/ml cdc7/Dbf4, 90 min at room temperature; read-out: Inhibitory rate (%) at 1 μM. The method, then: Full-length cdc7 co-expressed with full-length Dbf4 was purchased from Carna Bioscience, Inc. (Kobe, Japan). Homogeneous time-resolved fluorescence (HTRF) Transcreener ADP assay (Cisbio Inc., MA., U.S.A.) was used for detecting cdc7/Dbf4 kinase activity. Reactions were performed in kinase buffer (20 mM HEPES, pH 7.5, 10 mM magnesium acetate, 1 mM dithiothreitol) containing 1.0 μM ATP, 10 μg/ml MCM2, 0.1 μg/ml cdc7/Dbf4 for 90 min at room temperature. Free ADP from the ATP hydrolysis reaction was detected by the monoclonal ADP antibody labeled with Eu^3+-Cryptate, which competes with both native ADP and d2-coupled ADP. The TR-FRET signal was detected by EnVision (PerkinElmer Inc., MA, U.S.A.). Cdc7 kinase inhibitory rate (%) of the test compound was calculated by the following formula: Inhibitory rate(%)=(1−(count of test compound−blank)÷(control−blank))×100
The count of the solution reacted without addition of the compound was used as a “control”, and the count of the solution without the compound and cdc7/Dbf4 was used as a “blank”.
A general note: TR-FRET usually uses a lanthanide donor and a delayed reading to cut background.

The test system of assay [2] is Colo205 cells. As to the kind of experiment: Determination of cell proliferation inhibitory activity (Cell Titer-Glo Luminescent Cell Viability Assay). It is filed as cell-based. Conditions: Homo sapiens, COLO 205, 72 h, test compound 1 μM, incubation for 3 days, cellular ATP content, read-out: Inhibitory rate (%) at 1 μM. On the procedure: Cell proliferation was measured by using Cell Titer-Glo Luminescent Cell Viability Assay (Promega, Wis., USA,). The CellTiter-Glo Luminescent Cell Viability Assay is a homogeneous method of determining the number of viable cells in culture based on quantitation of the ATP present, which signals the presence of metabolically active cells. Colo205 cells (American Type Culture Collection) were sown at 3.0×10^3 cells/well to a 96 well microplate and cultured in an incubator (37° C., 5% carbon dioxide). On the following day, 100 μl of a solution of each test compound, which was previously diluted, was added. According to the instruction manual from vender, cellular ATP content of final treatment day was measured. After incubation for 3 days, solution of Cell Titer-Glo Luminescent Cell Viability Assay was added to each well and incubated for approximately 15 min at room temperature. Luminescence of each well was measured by ARVO Light (PerkinElmer Inc., MA, USA). Taking as 100% the ATP content for the none compound treatment control group, the ratio of the residual ATP content for each treatment group was determined.
A general note: Cellular ATP, detected with luciferase, serves as a proxy for viable cell number.

T1 sequence (O00311 whole entry): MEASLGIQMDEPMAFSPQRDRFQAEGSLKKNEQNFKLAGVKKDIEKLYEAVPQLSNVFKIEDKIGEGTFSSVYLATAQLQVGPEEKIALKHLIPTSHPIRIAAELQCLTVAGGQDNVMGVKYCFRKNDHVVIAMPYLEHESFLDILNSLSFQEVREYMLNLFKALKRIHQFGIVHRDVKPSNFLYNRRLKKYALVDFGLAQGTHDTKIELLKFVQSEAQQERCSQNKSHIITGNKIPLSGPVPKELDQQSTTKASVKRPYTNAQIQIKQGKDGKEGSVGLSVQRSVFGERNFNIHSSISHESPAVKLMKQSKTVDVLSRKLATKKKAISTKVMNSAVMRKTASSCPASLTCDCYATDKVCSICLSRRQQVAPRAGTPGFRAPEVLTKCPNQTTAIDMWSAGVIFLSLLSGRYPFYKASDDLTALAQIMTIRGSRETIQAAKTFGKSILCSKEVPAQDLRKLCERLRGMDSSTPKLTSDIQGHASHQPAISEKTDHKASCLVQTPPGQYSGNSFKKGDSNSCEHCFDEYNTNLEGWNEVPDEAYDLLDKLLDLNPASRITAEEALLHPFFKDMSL
T1 sequence (Q9UBU7 whole entry partner): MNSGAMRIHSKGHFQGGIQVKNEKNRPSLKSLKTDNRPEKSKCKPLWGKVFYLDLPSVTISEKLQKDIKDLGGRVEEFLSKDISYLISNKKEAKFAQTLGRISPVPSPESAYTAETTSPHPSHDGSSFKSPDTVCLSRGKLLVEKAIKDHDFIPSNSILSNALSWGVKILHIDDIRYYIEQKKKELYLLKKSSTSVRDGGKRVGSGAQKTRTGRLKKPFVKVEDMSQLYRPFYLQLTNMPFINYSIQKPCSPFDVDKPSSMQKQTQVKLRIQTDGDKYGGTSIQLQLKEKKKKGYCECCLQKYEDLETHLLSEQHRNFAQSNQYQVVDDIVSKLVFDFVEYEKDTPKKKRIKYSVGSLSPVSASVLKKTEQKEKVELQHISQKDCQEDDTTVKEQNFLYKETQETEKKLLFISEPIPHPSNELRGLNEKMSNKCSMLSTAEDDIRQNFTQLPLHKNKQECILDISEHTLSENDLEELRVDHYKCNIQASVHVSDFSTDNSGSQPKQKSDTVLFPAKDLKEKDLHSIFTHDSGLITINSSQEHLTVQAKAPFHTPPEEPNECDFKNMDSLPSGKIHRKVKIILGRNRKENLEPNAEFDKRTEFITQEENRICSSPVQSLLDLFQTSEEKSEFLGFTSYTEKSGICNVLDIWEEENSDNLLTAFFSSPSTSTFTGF

On to `CCN1c2cc(-c3ccncc3)sc2C(=O)NC1(C)C` [Example 15, 1-ethyl-2,2-dimethyl-6-(pyridin-4-yl)-2,3-dihydrothieno[3,2-d]pyrimidin-4(1H)-one], for which the inhibition at 1 µM in assay [1] turned out to be 97.6%.

In the case of `CCN1c2cc(-c3cn[nH]c3C)sc2C(=O)NC1(C)C` [Example 114, 1-ethyl-2,2-dimethyl-6-(5-methyl-1H-pyrazol-4-yl)-2,3-dihydrothieno[3,2-d]pyrimidin-4(1H)-one], in assay [2], the inhibition at 1 µM was determined as 67.4%.

On to `CC1(CC(F)(F)F)NC(=O)c2sc(-c3ccncc3)cc2N1` (stereo not shown) [Example 22, 2-methyl-6-(pyridin-4-yl)-2-(2,2,2-trifluoroethyl)-2,3-dihydrothieno[3,2-d]pyrimidin-4(1H)-one], for which the inhibition at 1 µM in assay [1] was found to be 97.1%.

With `O=C1NC2(CCN(C(=O)OCc3ccccc3)CC2)Nc2cc(-c3ccncc3)sc21` [Example 9, benzyl 4′-oxo-6′-(pyridin-4-yl)-3′,4′-dihydro-1′H-spiro[piperidine-4,2′-thieno[3,2-d]pyrimidine]-1-carboxylate], the inhibition at 1 µM in assay [1] was 103%. Turning to `Cc1[nH]ncc1-c1cc2c(s1)C(=O)NC1(CCCCC1F)N2` (stereo not shown) [Example 122, 2-fluoro-6′-(5-methyl-1H-pyrazol-4-yl)-1′H-spiro [cyclohexane-1,2′-thieno[3,2-d]pyrimidin]-4′(3′H)-one], the inhibition at 1 µM in assay [1] came out at 91.8%; in assay [2], 48.9%.

For `Cc1[nH]ncc1-c1cc2c(s1)C(=O)NC(C)(C)N2CC(F)F` [Example 115, 1-(2,2-difluoroethyl)-2,2-dimethyl-6-(5-methyl-1H-pyrazol-4-yl)-2,3-dihydrothieno[3,2-d]pyrimidin-4(1H)-one], the inhibition at 1 µM in assay [2] was found to be 66.1%. On to `Cc1[nH]ncc1-c1cc2c(s1)C(=O)NC(C)(CC(F)(F)F)N2C` (stereo not shown) [Example 104, 1,2-dimethyl-6-(5-methyl-1H-pyrazol-4-yl)-2-(2,2,2-trifluoroethyl)-2,3-dihydrothieno[3,2-d]pyrimidin-4(1H)-one], for which the inhibition at 1 µM was determined as 101% in assay [1] and 62.9% in assay [2]. As to `O=C1NC2(CCCCC2)Nc2cc(-c3ccncc3)sc21` [Example 6, 6′-(pyridin-4-yl)-1′H-spiro[cyclohexane-1,2′-thieno[3,2-d]pyrimidin]-4′(3′H)-one], in assay [1], the inhibition at 1 µM was found to be 98.5%. Consider `CC1(C)NC(=O)c2sc(-c3cn[nH]c3)cc2N1` [Example 34, 2,2-dimethyl-6-(1H-pyrazol-4-yl)-2,3-dihydrothieno[3,2-d]pyrimidin-4(1H)-one], for which the inhibition at 1 µM in assay [1] stood at 104%. In the case of `CCN1c2cc(-c3ccncc3)sc2C(=O)NC12CCCC2` [Example 27, 1′-ethyl-6′-(pyridin-4-yl)-1′H-spiro [cyclopentane-1,2′-thieno[3,2-d]pyrimidin]-4′(3′H)-one], the inhibition at 1 µM in assay [1] was 101%; in assay [2], 59.6%.

The record behind these values is patent US8691828B2, “Thienopyrimidine as CDC7 kinase inhibitors” (Takeda Pharmaceutical Company Limited, priority 2009, dated 2014).
